Test results published in patent US9629843B2, “MTOR modulators and uses thereof” (The Regents of the University of California, priority 2008, dated 2017).
pIC50: −log10 of the molar value.

Tests used:
[1] = test system: cap-dependent translation; assay: Cap-dependent translation, m7GTP affinity, p190 cells; format: cell-based; details: IM at 5 μM; FIG. 38D
p190 leukemic cells = assay: Syngenic mouse leukemia transplant model (p190); format: in vivo, Balb/c mice; details: for number of cycling leukemic blasts / apoptosis of leukemic blast cells: bone marrow and spleen; for number of cycling leukemic blasts: FIG. 23; for apoptosis of leukemic blast cells: FIG. 24
Method: The murine bone marrow infection/transplantation method was used to determine the effect of kinase inhibitors on disregulated cellular proliferation […]. The MSCV-p190-BCR-Abl-Ires-GFP (MIG-p190) or MSCV-p190-BCR-Abl-Ires-hCD4Δtail (MIC-p190) retroviral vectors were assembled in 293T cells and used to transduce bone marrow cells. The GFP and CD4Δtail markers allow quantitation by FACS analysis and/or enrichment by magnetic sorting of transduced cells.
These cells were administered together with a radioprotective dose of about 5×10^6 normal bone marrow cells from 3-5 week old donor Balb/c mice. […] Mice who became sick after about 14 days were euthanized and lymphoid organs were harvested for analysis. Kinase inhibitor treatment began about 10 days after leukemic cell injection and continued daily until the mice became sick or a maximum of approximately 35 days post-transplant. Inhibitors were given by oral lavage.
Peripheral blood cells were collected approximately on day 10 (pre-treatment) and upon euthanization (post treatment), contacted with labeled anti-hCD4 antibodies and counted by flow cytometry.
Mice were injected with the BrdU analogue EdU and sacrificed. Bone marrow and spleen were collected, blast cells were harvested from the tissue, and stained with antibodies to hCD4, and analyzed by flow cytomtery.
Bone marrow and spleen were collected, blast cells were harvested from the tissue, and stained with antibodies to hCD4, Annexin V, and 7AAD, and analyzed by flow cytometry. […] The results also show significant increase at the concentrations examined in induction of apoptosis at the concentrations examined of imatinib in combination with rapamycin or PI-103.

[2] = test system: Akt phosphorylation (S473, T308) in L6 myotubes; assay: Akt phosphorylation in insulin stimulated L6 myotubes (immunoblot); format: cell-based; details: 100 nM insulin, FIG. 3
Method: L6 myoblasts were grown typically grown in DMEM supplemented with about 10% FBS, glutamine and penicillin/streptomycin. Confluent L6 myoblasts were differentiated into mytubes by culturing them for approximately 5 days in media containing about 2% FBS. L6 myotubes were maintained in media containing approximately 2% FBS until use.
In order to compare the effect of TORKinibs and PIK-90 on Akt phosphorylation, L6 myotubes were serum starved overnight and incubated with inhibitors or about 0.1% DMSO for approximately 30 minutes prior to stimulation with insulin (e.g. 100 nM) for about 10 minutes. Cells were lysed by scraping into ice cold lysis buffer (generally: 300 mM NaCl, 50 mM Tris pH 7.5, 5 mM EDTA, 1% TRITON™ X-100, 0.02% NaN3, 20 nM microcystin, Sigma phosphatase inhibitor cocktails 1 and 2, Roche protease inhibitor cocktail and 2 mM PMSF). After contacting cells with lysis buffer, the solution was briefly sonicated. Lysates were cleared by centrifugation, resolved by SDS-PAGE, transferred to nitrocellulose and immunoblotted using antibodies to phospho-Akt S473, phospho-Akt T308, Akt, and β-actin (Cell Signaling Technologies).

PKCα = target: T1, PKCα (Homo sapiens, UniProt P17252); assay: Kinase inhibition assay, PKCα; format: biochemical; details: at about 1 μM or less
T1 construct: Purified kinase domains (e.g. mTor, P110α, P110β, P110γ, P110δ, PI4Kβ, DNA-PK, PKCα, PKCβ1, PKCβII, RET, and JAK2)

[3] = test system: S6K, S6, 4EBP1 phosphorylation in L6 myotubes; assay: Phosphorylation of S6K, S6 and 4EBP1 in insulin stimulated L6 myotubes; format: cell-based
[4] = test system: myristolated-Akt transgenic thymocytes tumors; assay: Akt murine allograft tumor model; format: in vivo, NOD/SCID mice; details: after 20 days of treatment
PC3 cells = assay: Inhibition of proliferation of PC3 cells; format: cell-based; details: Homo sapiens, PC-3
PI3K δ = target: T2, PI3K δ (Homo sapiens, UniProt O00329); assay: Kinase inhibition assay, PI3K δ; format: biochemical
T2 construct: Purified kinase domains (e.g. mTor, P110α, P110β, P110γ, P110δ, PI4Kβ, DNA-PK, PKCα, PKCβ1, PKCβII, RET, and JAK2)
T2 sequence (O00329 745-1027 limits assumed): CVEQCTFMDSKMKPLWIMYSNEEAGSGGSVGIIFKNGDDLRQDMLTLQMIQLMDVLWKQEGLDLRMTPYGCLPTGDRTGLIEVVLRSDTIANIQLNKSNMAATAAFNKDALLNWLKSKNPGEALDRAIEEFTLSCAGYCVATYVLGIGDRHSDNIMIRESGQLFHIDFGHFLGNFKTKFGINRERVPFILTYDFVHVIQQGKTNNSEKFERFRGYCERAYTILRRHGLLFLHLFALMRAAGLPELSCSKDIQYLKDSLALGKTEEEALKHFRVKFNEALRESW
T2 sequence (P27986 whole entry partner, the tested form may be a part): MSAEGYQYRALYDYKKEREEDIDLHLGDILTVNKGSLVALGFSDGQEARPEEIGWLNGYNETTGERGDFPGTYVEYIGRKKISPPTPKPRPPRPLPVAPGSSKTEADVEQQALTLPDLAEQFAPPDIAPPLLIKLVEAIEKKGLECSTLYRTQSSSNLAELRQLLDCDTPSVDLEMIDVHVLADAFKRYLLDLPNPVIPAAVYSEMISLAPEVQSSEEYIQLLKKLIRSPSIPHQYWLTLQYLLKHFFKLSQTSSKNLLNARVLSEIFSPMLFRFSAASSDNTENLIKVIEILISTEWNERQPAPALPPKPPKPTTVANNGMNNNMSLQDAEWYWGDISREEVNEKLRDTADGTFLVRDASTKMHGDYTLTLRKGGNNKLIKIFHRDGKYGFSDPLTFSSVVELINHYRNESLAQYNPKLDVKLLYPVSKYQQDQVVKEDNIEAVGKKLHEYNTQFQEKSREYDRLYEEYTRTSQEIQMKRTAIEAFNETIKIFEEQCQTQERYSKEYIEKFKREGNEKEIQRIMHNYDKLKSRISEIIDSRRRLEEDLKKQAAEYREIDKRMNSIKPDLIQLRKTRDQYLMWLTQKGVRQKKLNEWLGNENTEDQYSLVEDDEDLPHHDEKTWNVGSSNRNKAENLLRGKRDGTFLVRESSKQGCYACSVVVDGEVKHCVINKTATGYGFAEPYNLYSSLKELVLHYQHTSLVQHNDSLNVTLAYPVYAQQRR

PI3K β = target: T3, PI3K β (Homo sapiens, UniProt P42338); assay: Kinase inhibition assay, PI3K β; format: biochemical
T3 construct: Purified kinase domains (e.g. mTor, P110α, P110β, P110γ, P110δ, PI4Kβ, DNA-PK, PKCα, PKCβ1, PKCβII, RET, and JAK2)
T3 sequence (P42338 772-1053 limits assumed): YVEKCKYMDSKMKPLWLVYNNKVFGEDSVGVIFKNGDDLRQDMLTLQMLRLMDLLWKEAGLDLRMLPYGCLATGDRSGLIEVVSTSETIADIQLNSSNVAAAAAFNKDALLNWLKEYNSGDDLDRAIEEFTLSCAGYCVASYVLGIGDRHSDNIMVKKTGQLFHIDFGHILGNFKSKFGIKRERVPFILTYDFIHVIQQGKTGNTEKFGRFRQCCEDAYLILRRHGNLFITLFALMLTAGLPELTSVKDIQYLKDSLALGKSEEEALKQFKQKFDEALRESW
T3 sequence (P27986 whole entry partner, the tested form may be a part): as the sequence (P27986 whole entry partner, the tested form may be a part) above

PI3K α = target: T4, PI3K α (Homo sapiens, UniProt P42336); assay: Kinase inhibition assay, PI3K α; format: biochemical
T4 construct: Purified kinase domains (e.g. mTor, P110α, P110β, P110γ, P110δ, PI4Kβ, DNA-PK, PKCα, PKCβ1, PKCβII, RET, and JAK2)
T4 sequence (P42336 765-1051 limits assumed): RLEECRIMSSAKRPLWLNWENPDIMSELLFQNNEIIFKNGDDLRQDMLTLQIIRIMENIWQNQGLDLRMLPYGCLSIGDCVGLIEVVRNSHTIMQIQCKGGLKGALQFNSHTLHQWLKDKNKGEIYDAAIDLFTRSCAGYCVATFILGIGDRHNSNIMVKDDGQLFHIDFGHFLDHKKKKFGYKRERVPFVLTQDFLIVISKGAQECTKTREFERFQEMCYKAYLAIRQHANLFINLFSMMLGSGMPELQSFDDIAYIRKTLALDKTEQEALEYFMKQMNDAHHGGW
T4 sequence (P27986 whole entry partner, the tested form may be a part): as the sequence (P27986 whole entry partner, the tested form may be a part) above

mTor = target: T5, mTor (Homo sapiens, UniProt P42345); assay: Kinase inhibition assay, mTor; format: biochemical
T5 construct: Purified kinase domains (e.g. mTor, P110α, P110β, P110γ, P110δ, PI4Kβ, DNA-PK, PKCα, PKCβ1, PKCβII, RET, and JAK2)
T5 sequence (P42345 2156-2469 limits assumed): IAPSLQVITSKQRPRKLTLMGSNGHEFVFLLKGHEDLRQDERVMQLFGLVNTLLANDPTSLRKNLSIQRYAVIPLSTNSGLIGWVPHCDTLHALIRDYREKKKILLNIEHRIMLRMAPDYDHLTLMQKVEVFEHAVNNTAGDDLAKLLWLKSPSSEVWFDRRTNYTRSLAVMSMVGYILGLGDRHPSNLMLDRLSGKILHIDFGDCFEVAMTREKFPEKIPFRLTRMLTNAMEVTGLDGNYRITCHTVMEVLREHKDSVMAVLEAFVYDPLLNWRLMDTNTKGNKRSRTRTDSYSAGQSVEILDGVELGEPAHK

AML = assay: Colony assay using AML specimens; format: cell-based, Human; details: expected
Method: Human Ph− B-ALL and AML specimens are obtained. Ph− B-ALL and AML are cytogenetically diverse, with diverse therapeutic regimens currently in use depending on patient risk factors. The majority of Ph− B-ALL patients are treated initially with a combination of three drugs: glucocorticoid (e.g. dexamethasone), vincristine, and asparaginase or anthracycline (e.g. daunorubicin). Most AML patients receive an anthracycline only. Pilot experiments with 3 patient samples are conducted to determine concentrations of vincristine (Ph− ALL) or daunorubicin (AML) that partially reduce colony formation in methylcellulose. It is expected that these drugs are effective in the range of 0.1-1 μM (vincristine) and 3-30 nM (daunorubicin). Optionally, the Ph-ALL assays may be supplemented with dexamethasone and/or daunorubicin.

[5] = test system: ENaC-dependent Na+ current; assay: ENaC-dependent Na+ transport in mpkCCD cells; details: prolonged treatment (>24 h)
p190 transduced cells [6] = assay: MTS viability assay of p190 transduced cells; format: cell-based, murine
[7] = test system: Akt phosphorylation (S473, T308) in MEFs; assay: Akt phosphorylation in wild-type and SIN1−/− mouse embryonic fibroblasts (immunoblot); format: cell-based; details: SIN1−/− MEFs
Method: Wild-type and SIN1−/− primary mouse embryonic fibroblasts (MEFs) were grown in DMEM supplemented with about 10% FBS, glutamine and penicillin/streptomycin. MEFs were treated with TORKinib at about 2.5, 0.63, and 0.16 uM; rapamycin at approximately 15 nM; or PIK-90 at 625 nM for 30 minutes prior to insulin stimulation (e.g. 100 nM) for 10 minutes. Cells were lysed by scraping into ice cold lysis buffer (typically 300 mM NaCl, 50 mM Tris pH 7.5, 5 mM EDTA, 1% TRITON™ X-100, 0.02% NaN3, 20 nM microcystin, Sigma phosphatase inhibitor cocktails 1 and 2, Roche protease inhibitor cocktail and 2 mM PMSF). After contacting cells with lysis buffer, the solution was briefly sonicated. Lysates were cleared by centrifugation, resolved by SDS-PAGE, transferred to nitrocellulose and immunoblotted using antibodies to phospho-Akt S473, phospho-Akt T308, Akt, and β-actin (Cell Signaling Technologies).

[8] = test system: Akt substrates (GSK3, TSC2, FoxO1/O3a) in L6 myotubes; assay: Phosphorylation of Akt substrates in insulin stimulated L6 myotubes; format: cell-based; details: FIG. 6
p190 transduced cells [9] = assay: Combination with imatinib on p190 transduced cells (MTS, combination index); format: cell-based, murine
[10] = test system: p190 BCR-Abl transformed bone marrow cells; assay: Colony forming assay with p190 BCR-Abl transformed murine bone marrow cells; format: cell-based; details: compared to rapamycin; FIG. 17
[11] = test system: CD19+ CD34+ B cell progenitors from Ph+ and Ph− patients; assay: Colony forming assay with human B-ALL cells; format: cell-based; details: about 50 nM dasatinib; FIG. 18
PI3K γ = target: T6, PI3K γ (Homo sapiens, UniProt P48736); assay: Kinase inhibition assay, PI3K γ; format: biochemical
T6 construct: Purified kinase domains (e.g. mTor, P110α, P110β, P110γ, P110δ, PI4Kβ, DNA-PK, PKCα, PKCβ1, PKCβII, RET, and JAK2)
T6 sequence (P48736 797-1080 limits assumed): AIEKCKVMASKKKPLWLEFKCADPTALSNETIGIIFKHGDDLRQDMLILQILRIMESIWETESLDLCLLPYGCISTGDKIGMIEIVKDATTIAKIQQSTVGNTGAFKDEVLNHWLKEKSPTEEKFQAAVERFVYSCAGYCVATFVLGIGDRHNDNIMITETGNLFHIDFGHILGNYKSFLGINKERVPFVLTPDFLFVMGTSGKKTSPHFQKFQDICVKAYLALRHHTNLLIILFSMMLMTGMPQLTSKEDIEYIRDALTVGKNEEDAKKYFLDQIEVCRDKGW

Ph− B-ALL = assay: Colony assay using Ph− B-ALL specimens; format: cell-based, Human; details: expected

Compound: Cc1ccc(NC(=O)c2ccc(CN3CCN(C)CC3)cc2)cc1Nc1nccc(-c2cccnc2)n1 [imatinib]
- cap-dependent translation [1]: inhibit cap-dependent translation
- number of cycling leukemic blasts (p190 leukemic cells): significantly reduced the number of cycling leukemic blasts
- apoptosis of leukemic blast cells (p190 leukemic cells): induction of apoptosis in leukemic blast cells
- splenomegaly (p190 leukemic cells; oral lavage daily, FIG. 21): significant decrease in splenomegaly

Compound: CC(C)n1nc(-c2cccc(C(=O)NC3=NCCS3)c2)c2c(N)ncnc21 [PP30]
- insulin stimulated phosphorylation of Akt at S473 and T308 [2]: inhibit insulin stimulated phosphorylation of Akt at S473
- inhibition of PKCα (PKCα): does not inhibit PKCα significantly
- phosphorylation of 4EBP1 at T37/46 [3]: able to inhibit

Compound: CO[C@H]1C[C@@H]2CC[C@@H](C)[C@@](O)(O2)C(=O)C(=O)N2CCCC[C@H]2C(=O)O[C@H]([C@H](C)C[C@@H]2CC[C@@H](O)[C@H](OC)C2)CC(=O)[C@H](C)/C=C(\C)[C@@H](O)[C@@H](OC)C(=O)[C@H](C)C[C@H](C)/C=C/C=C/C=C/1C [rapamycin, reference compound]
- body weight [4]: maintained body weight

Compound: CC(=O)N1CCC(n2nc(-c3cc4cc(O)ccc4[nH]3)c3c(N)ncnc32)CC1
- pIC50 (PC3 cells): 4.93
- pIC50 (PI3K δ): 5.01
- pIC50 (PI3K β): 4.60
- pIC50 (PI3K α): 5.24
- pIC50 (mTor): 7.85

Compound: COc1cccc2c1C(=O)c1c(O)c3c(c(O)c1C2=O)C[C@@](O)(C(C)=O)C[C@@H]3O[C@H]1C[C@H](N)[C@H](O)[C@H](C)O1 [daunorubicin]
- effective range, partial reduction of colony formation (AML): 3 to 30 nM

Compound: CC(C)n1nc(-c2cc3ccccc3[nH]2)c2c(N)ncnc21
- pIC50 (PC3 cells): 5.69
- pIC50 (PI3K α): 4.95
- pIC50 (mTor): 7.10

Compound: O=c1cc(N2CCOCC2)oc2c(-c3ccccc3)cccc12 [LY294002, reference compound]
- toxic effect of prolonged treatment [5]: diminishes electrical resistance and causes morphological changes

Compound: Cc1ccccc1-n1c(Cn2cnc3c(N)ncnc32)nc2cccc(C)c2c1=O [IC87114]
- type of effect on cell viability (p190 transduced cells [6]; plateau at high concentrations, 48 hrs): primarily cytostatic

Compound: COc1ccc2c(c1OC)N=C(NC(=O)c1cccnc1)N1CCN=C21 [PIK-90, reference compound]
- insulin stimulated phosphorylation of Akt at S473 and T308 [2]: inhibit the phosphorylation of both Akt sites equipotently
- phosphorylation of Akt T308 [7]: blocks phosphorylation of T308
- phosphorylation of Akt and its substrates [8]: completely inhibited
- phosphorylation of 4EBP1 at T37/46 [3]: does not reduce

Compound: Cn1c(=O)n(-c2ccc(C(C)(C)C#N)cc2)c2c3cc(-c4cnc5ccccc5c4)ccc3ncc21 [BEZ235]
- pIC50 (p190 transduced cells [6]; Mus musculus, stated as treatment concentration = IC50): ~8.30
- synergy with imatinib (combination index) (p190 transduced cells [9]; over a broad dose range, FIG. 16): moderate to strong synergy
- colony forming activity in combination with imatinib [10]: potentiate the effects of a half maximal concentration of imatinib

Compound: Oc1cccc(-c2nc(N3CCOCC3)c3oc4ncccc4c3n2)c1 [PI-103]
- number of cycling leukemic blasts (p190 leukemic cells): significantly reduced the number of cycling leukemic blasts
- apoptosis of leukemic blast cells (p190 leukemic cells): induction of apoptosis in leukemic blast cells
- colony formation in combination with dasatinib [11]: stronger effect of dasatinib-PI-103 combination as compared to dasatinib-rapamycin combination
- effect on anti-proliferative effects of imatinib (p190 transduced cells [9]; 48 hrs MTS, FIG. 19): potentiate the anti-proliferative effects of imatinib
- combination index with imatinib (p190 transduced cells [9]; over a broad dose range, FIG. 20): more synergistic than rapamycin

Compound: CC(C)n1nc(-c2cc3cccc(O)c3[nH]2)c2c(N)ncnc21
- pIC50 (PC3 cells): 7.42
- pIC50 (PI3K γ): 6.35
- pIC50 (PI3K δ): 6.48
- pIC50 (PI3K β): 5.45
- pIC50 (PI3K α): 5.46
- pIC50 (mTor): 9.15

Compound: CC(C)n1nc(-c2cc3ccc(O)cc3[nH]2)c2c(N)ncnc21
- pIC50 (PC3 cells): 6.00
- pIC50 (PI3K γ): 6.94
- pIC50 (PI3K δ): 6.40
- pIC50 (PI3K β): 5.67
- pIC50 (PI3K α): 6.55
- pIC50 (mTor): 7.59

Compound: CC[C@]1(O)C[C@H]2CN(CCc3c([nH]c4ccccc34)[C@@](C(=O)OC)(c3cc4c(cc3OC)N(C=O)[C@H]3[C@@](O)(C(=O)OC)[C@H](OC(C)=O)[C@]5(CC)C=CCN6CC[C@]43[C@@H]65)C2)C1 [vincristine, reference compound]
- effective range, partial reduction of colony formation (Ph− B-ALL): 0.1 to 1 µM
